The conditions of experiment [1]: EMS-mutated populations; cited from earlier work.
Experiment [2] deals with rpoB gene. The experiment in a line: rpoB/Rif^r assay: EMS mutagenesis of E. coli KL16 carrying pNUC-dSpCas9 + pGUIDE-Sp-Zm7.1. It counts as cell-based, Escherichia coli. The following applies: for Rif^r CFUs in 5 μL (average) / Rif^r CFUs in 100 μL (average): one hour, cells with pNUC-dCas9 + pGUIDE-Sp-Zm7.1. The source says:
This example describes the Escherichia coli rpoB gene and Rifampicin-resistant (Rif^r) mutations that map to rpoB as a system to characterize mutation rates and mutation types induced by chemical mutagens.
The E. coli K12 (strain MG1655) rpoB gene (SEQ ID NO: 1) encodes a subunit of the RNA polymerase complex (SEQ ID NO: 2) and is the target of the antibiotic rifampicin, a bacterial transcription inhibitor. A unique feature of the rpoB gene is that at least 69 nucleotide substitutions in 24 amino acid codons can confer the Rif^r phenotype to E. coli. This makes rpoB a useful target for screening and analyzing the type and frequency of nucleotide changes (e.g., additions, deletions, and substitutions induced by mutagens (reviewed in Garibyan et al., 2003, DNA Repair, 2:593-608). Furthermore, a majority of mutations that confer Rifampicin resistance (>90%) map to a relatively small, 268-nucleotide long, region of the rpoB gene. This allows PCR amplification with a single pair of oligonucleotide primers, followed by sequencing, which permits rapid analysis of numerous potential mutations. The aforementioned 268-bp fragment of the E. coli K12 rpoB gene is set forth as SEQ ID NO: 3. […] However, mutants comprising short, in-frame deletions (up to five amino acids) have been found, but at a much lower frequency (see, for example, Jin and Gross, J Mol Biol. 202:45-58 (1988)).
To test the rate and spectrum of mutations induced by EMS on rpoB, an experiment was performed where E. coli KL16 cells were co-transformed with pNUC-dSpCas9 and pGUIDE-Sp-Zm7.1; treated with 0.1% or 1% EMS. Resulting Rif^r mutations were selected and scored. The rpoB gene fragment (SEQ ID NO: 3) was sequenced from each colony and the predominant mutations were identified. As noted above in Example 2, pGUIDE-Sp-Zm7.1 is not expected to target the E. coli chromosome, and thus serves as a negative control.
Approximately 0.7 μL of pNUC-dSpCas9 and pGUIDE-Sp-Zm7.1 plasmid DNAs (approximate concentrations of 50 to 150 ng/μL) were added to 30 μL aliquots of electrocompetent E. coli KL16 cells. The cells and DNA were electroporated in 1 mm gap cuvettes, using Bio-Rad GenePulser II with settings described above in Example 2. Approximately 1 mL of S.O.C. medium was added to the cuvettes, mixed, transferred to culture tubes, and shaken in a 37° C. incubator shaker for ˜90 min at 280 RPM. Approximately 20 μL of the mix was diluted with 380 μL of S.O.C. medium (1:20 dilution), 100 μL was plated on LB plates containing +25 μg/mL Cm, +50 μg/mL Spect antibiotics followed by overnight incubation at 37° C. After overnight growth, the plates contained ˜100-400 uniform single colonies. Four to five single colonies from the plates were picked and mixed in 2.5 mL liquid LB media containing +25 μg/mL Cm, +50 μg/mL Spect. The culture was grown overnight at 37° C. with shaking at 280 RPM. The following day the saturated overnight culture was diluted into 3 mL of fresh LB +25 μg/mL Cm, +50 μg/mL Spect at a 1:20 ratio. After growth for ˜3 hours shaking (280 RPM) at 37° C., the culture was in exponential growth with an A600 absorbance measurement of ˜1. The culture was split into three 1 mL aliquots in Eppendorf tubes, then spun at full speed for one minute. The LB supernatant was removed and the small pellets were resuspended by gentle pipetting into 1 mL PBS and transferred to culture tubes.
Approximately 1 μL of EMS (Sigma M0880) was added to the first tube (0.1% EMS, final conc.) and approximately 10 μL of EMS was added to the second tube (1% EMS, final conc.). The third tube received no EMS (0% EMS). After mixing, the tubes were incubated at 37° C. with shaking for one hour. The 1 mL cultures were transferred back into Eppendorf tubes and spun at full speed for 1 minute. The pellets were washed once with PBS to remove EMS and resuspended in 1 mL LB+25 μg/mL Cm, +50 μg/mL Spect. […]

Experiment [3] concerns rpoB gene. The following applies: at eight sites; Garibyan et al.; cited from earlier work.
For experiment [4], the system named is rpoB gene. The experiment in a line: Deep sequencing of the rpoB fragment from Rif^r colonies. It counts as cell-based, Escherichia coli. The following applies: 0.1% and 1% EMS, untargeted dCas9. Here is the method:
Ninety-six Rif^r colonies from 0.1% and 1% EMS treatment assays were picked and colony PCR was carried out to amplify the […] rpoB fragment. Approximately 20 μL PCRs reactions were carried out in 96 well plates, using forward and reverse primers comprising Illumina barcoded adaptors and designed to amplify a […] rpoB fragment associated with mutations conferring the Rif^r phenotype. The success of the reactions was checked by running ˜5 μL of 8-12 samples picked from across the 96 wells and running on e-gels. […] After obtaining the raw reads, adaptor sequences were removed with the program Cutadapt (Martin, EMBnet.journal, 2011, [S1], v17, n1, p. pp. 10-12, ISSN 2226-6089) and low quality reads are filtered with Trimmomatic (Version 0.36) (Bolger et al., Bioinformatics, 30:2114 (2014)). The program ‘glsearch’ (Pearson, Methods Mol Biol., 132:185-219 (2000)), was used to map reads to the reference rpoB sequence and to detect substitutions and small INDELs. […]
Individual colonies as well as plate scrapes (pooled colonies) were sequenced. […] Quality reads were obtained from 71 colonies for treatment 1, 92 colonies for treatment 2, and 89 colonies for treatment 3. Quality reads were also obtained from the Plate scrape samples.

The next experiment relates to DNA. The following applies: D832A/E925A (dLbCpf1); D10A/H840A (dSpCas9); cited from earlier work.

In the case of `CCOS(C)(=O)=O` [EMS, ethyl methanesulfonate], in experiment [1], the “modifications that are G:C→A:T base pair transitions” value is reported as 70% to 99%. Also, in the experiment on rpoB gene [2] (0.1% EMS), the “increase of mutation rate relative to the spontaneous mutation rate” value is ~40 ×, the “Rif^r CFUs in 5 μL (average)” value turned out to be 18 CFUs and the “Rif^r CFUs in 100 μL (average)” value worked out at 280 CFUs. Further, in the experiment on rpoB gene [2] (1.0% EMS), the “increase of mutation rate relative to the spontaneous mutation rate” value was ~2600 ×. Moreover, in the experiment on rpoB gene [2] (1% EMS), the “Rif^r CFUs in 5 μL (average)” value is on record as 1036 CFUs and the “Rif^r CFUs in 100 μL (average)” value was >10^4 CFUs. For the same compound, in the experiment with rpoB gene [3], the “mutations identified within the 268-bp stretch of rpoB, all G:C→A:T transitions” value was 40. In addition, in the experiment with rpoB gene [4], the “colonies with an in-frame 15 nucleotide deletion” value is listed as “Four” and the “mutations previously described as inducing the Rif^r phenotype identified in the EMS screen” value was “ten of the thirteen”.

In the case of “dSpCas9: dead SpCas9 with D10A and H840A substitutions (SEQ ID NO: 22)”, the DNA cleavage activity result in the experiment with DNA is listed as “complete abolishment of DNA cleavage activity”.

The values above are taken from US20200347389A1, “COMPOSITIONS AND METHODS FOR GENERATING DIVERSITY AT TARGETED NUCLEIC ACID SEQUENCES” (MONSANTO TECHNOLOGY LLC, priority 2019, published 2020).
